ChEMBL document CHEMBL1156829 (Proc Natl Acad Sci U S A, 2008)
pEC50: −log10 of the molar value.

Experiments:
[1] = NOVARTIS: Cytotoxicity against human hepatocellular carcinoma cell line (Huh7); type: toxicity, cell-based, Huh-7; details: Huh7 cells (hepatocellular carcinoma cell line)
Plasmodium falciparum [2] = assay: NOVARTIS: Inhibition of Plasmodium falciparum 3D7 (drug-susceptible) proliferation in erythrocyte-based infection assay; type: functional, organism-based; details: Plasmodium falciparum, 3D7
Plasmodium falciparum [3] = assay: NOVARTIS: Inhibition of Plasmodium falciparum W2 (drug-resistant) proliferation in erythrocyte-based infection assay; type: functional, organism-based; details: Plasmodium falciparum, W2; read-out: EC50

| Compound | CC50 [1] [nM] | pEC50 (Plasmodium falciparum [2]) | pEC50 (Plasmodium falciparum [3]) |
| --- | --- | --- | --- |
| NC(Cc1ccccc1)C(=O)N1CCC(Nc2nsc3ccccc23)C1 (stereo not drawn) | 12700 | 5.95 | 5.82 |
| Cc1cccn2c(NCc3ccccc3)c(-c3ccccc3OC(=O)CCCCl)nc12 | > 10000 | 6.11 | 6.60 |
| CCN1CCCC1CNc1ncnc2c1[nH]c1ccc(C)cc12 (stereo not drawn) | 21000 | 6.57 | 6.86 |
| CC(C)COc1ccc(C(=O)N/C(=C/c2ccccc2)C(N)=O)cc1 | > 10000 | < 5.90 | < 6.21 |
| Cc1n[nH]c2c1C(c1ccc([N+](=O)[O-])cc1)N(c1ccc(Br)cc1)C2=O (stereo not drawn) | > 100000 | < 4.90 | < 5.20 |
| CC(c1nc2ccc(Cl)cc2c(=O)n1C)N1CCN(C(=O)C(C)(C)C)CC1 (stereo not drawn) | > 10000 | 5.83 | 6.07 |
| COc1ccc(-n2cc(-c3ccc(C)cc3)nc2SCC(=O)Nc2ccc(C)cc2)cc1 | > 10000 | 5.65 | < 5.90 |
| O=C(COC(c1ccccc1)c1c(Cl)cncc1Cl)N1CCC(c2ccccn2)C1 (stereo not drawn) | > 100000 | < 4.90 | 5.16 |
| CC(C)OC(=O)CSc1nnc(CNc2nc(-c3ccccc3)cs2)n1C | > 100000 | 5.86 | 5.86 |
| CN(C)c1cc[n+](CC(=O)c2cccs2)cc1 | > 100000 | 6.19 | 6.16 |
| CCOc1ccc2[nH]c(=O)c(CN(CCN3CCCC3)C(=S)Nc3ccc(F)cc3)cc2c1 | > 100000 | 5.74 | 5.60 |
| Cc1ccc(CN2CCN(Cc3ccccc3)CC2)o1 | > 8970 | < 5.90 | 5.89 |
| Cc1cccc(NC(=O)N2CCN(C(=O)c3nc(-c4ccccc4)nc(C)c3C(=O)OC(C)C)CC2C)c1C (stereo not drawn) | > 5760 | 6.29 | 6.42 |
| O=C(C1CC=CCC1)N1CCCC(c2ncncc2-c2ccncc2)C1 (stereo not drawn) | > 10000 | 5.86 | < 5.90 |
| O=C(Nc1ccccc1Cl)C1CCCN1C(=O)OCc1ccccc1 (stereo not drawn) | > 10000 | < 5.90 | < 6.03 |
| c1ccc2cc3c(N4CCN(CCN5CCN(c6ccnc7cc8ccccc8cc67)CC5)CC4)ccnc3cc2c1 | > 100000 | 6.75 | 6.64 |
| CC(=O)c1cc(CN2CCC(C(=O)Nc3ccc(-n4nc(C)cc4C)cc3)CC2)cs1 | > 100000 | 6.01 | 6.18 |
| C[n+]1cc(-c2ccc3cccc([N+](=O)[O-])c3n2)cc2ccccc21 | > 10000 | 6.44 | 6.35 |
| CCCC(C)C(C(=O)NCc1ccccc1)N1C(=O)c2cc(NC(C)=O)ccc2NC(=O)[C@@H]1c1ccccc1 (stereo partly drawn) | 9210 | < 5.90 | > 8.15 |
| CCOC(=O)C1=C(C)NC2=C(C(=O)C(C(=O)OCC)C(c3ccc(OC)cc3)C2)C1c1ccc(OC)c(OC)c1 (stereo not drawn) | > 76600 | 6.56 | 6.75 |
| C=CCc1c(C)nc2ccccc2c1O | > 100000 | 6.15 | 6.07 |
| CCC(Sc1nnc(-c2ccc(C)cc2)c(-c2ccc(C)cc2)n1)C(=O)NCCOC (stereo not drawn) | 77000 | 6.32 | 6.12 |
| N#CC1=C(N)Oc2c(c(=O)oc3ccccc23)C1c1ccoc1 (stereo not drawn) | > 10000 | < 5.94 | < 5.78 |
| O=C(Nc1cc(Cl)cc(Cl)c1)Nc1cccc(C(F)(F)F)c1 | 14900 | 7.86 | < 4.90 |
| Cc1ccc(-c2cn3c([n+]2-c2ccccc2)SCC3)cc1 | > 100000 | 6.37 | 6.51 |
| Cc1ccc(C2=NC(C(F)(F)F)(C(F)(F)F)N=C3C=CC(Cl)=CN32)cc1 | > 10000 | < 5.92 | < 5.88 |

| Compound | CC50 [1] [nM] | pEC50 (Plasmodium falciparum [2]) | pEC50 (Plasmodium falciparum [3]) |
| --- | --- | --- | --- |
| Fc1ccc(CNc2ccnc3cc(Cl)ccc23)cc1 | > 10000 | 6.09 | < 6.06 |
| CCOC(=O)c1[nH]c(C)c(CNc2cccc(OC)c2)c1C | 6980 | 5.82 | 5.92 |
| O=C(CN1C(=O)c2ccccc2C1=O)Nc1cc(Cl)ccc1C(=O)O | > 10000 | < 5.90 | 6.31 |
| c1ccc(C2=NN(c3ccccc3)C(c3ccc4c(c3)OCO4)N2c2ccc(N3CCOCC3)cc2)cc1 (stereo not drawn) | > 10000 | 6.17 | 5.75 |
| COc1ccc(C(=O)Nc2nonc2-c2ccc(OC)c(OC)c2)cc1Cl | > 100000 | 5.75 | 5.60 |
| CCC(C)(C)C1CCc2c(sc(NC(=O)c3ccc(F)cc3)c2C(N)=O)C1 (stereo not drawn) | > 10000 | < 5.90 | 5.63 |
| Sc1nc2ccc3nsnc3c2[nH]1 | > 10000 | 6.15 | 6.27 |
| O=C(COc1ccccc1Cl)OCc1cc(=O)n2nc(C3CC3)sc2n1 | > 10000 | < 6.10 | < 5.90 |
| COC(=O)[C@@H]1C[C@@H](NC(=O)c2ccc(OC)cc2OC)CN1CC(c1ccccc1)c1ccccc1 | > 10000 | 6.23 | 5.92 |
| CCC(=O)N(C1=C(NC)C(=O)c2ccccc2C1=O)C(C)C | 563 | 8.05 | 7.44 |
| CCOc1ccc(NC(=O)c2ccc(I)o2)cc1 | 69600 | 5.31 | 5.24 |
| CC(=O)Nc1nc(C)c(-c2csc(Nc3ccc(C)cc3)n2)s1 | 23600 | 6.62 | 6.78 |
| CC1=CC(=C(C#N)c2nc3ccccc3s2)C=C(C)N1c1ccc2c(c1)OCO2 | > 100000 | 5.98 | 5.43 |
| COc1ccc(C2CC3=NC(C)=C(C(=O)OC(C)C)C(c4ccccc4Cl)C3=C(O)C2)cc1OC (stereo not drawn) | > 100000 | 8.21 | 8.39 |
| O=C(NC1CCN(CC(O)CN(Cc2ccccc2)S(=O)(=O)c2ccccc2)C1)c1ccsc1 (stereo not drawn) | > 10000 | 6.92 | > 8.06 |
| C(=NNc1nc2ccccc2[nH]1)c1c[nH]c2ccccc12 | 19200 | 6.48 | 6.41 |
| CCCCOc1ccc(N(C(C)=O)C2=C(N3CCOCC3)C(=O)c3ccccc3C2=O)cc1 | 41000 | 6.64 | 6.52 |
| CC(Cc1ccccc1)NCCCCCNC(C)Cc1ccccc1 (stereo not drawn) | 5320 | 6.62 | 6.30 |
| C=CCNC(=O)c1ccc2c(c1)N=C(c1ccc(F)cc1)N(CCCC)C2 | 16900 | 6.72 | 5.61 |
| O=C(Nc1nc(-c2ccccc2)cs1)c1ccccc1O | 24300 | 6.00 | 6.19 |
| CC(C)CN1CCC(O)(c2ccc3oc(C(=O)Nc4ccc5c(c4)OCO5)cc3c2)CC1 | 55200 | 5.97 | 6.44 |
| Cc1ccc(Cl)cc1Nc1nc2ccccc2n2c(C)nnc12 | > 100000 | < 4.90 | 5.35 |
| COc1cc(C=NNC(=O)c2ccc(C(=O)NN=Cc3ccc(O)c(OC)c3)cc2)ccc1O | > 100000 | 6.19 | 5.99 |
| Cc1sc2nc(CN(C(=O)CCc3ccccc3)C3CCCCC3)[nH]c(=O)c2c1C | 1940 | < 5.90 | 6.37 |
| COC1=C(Nc2cccc(C(F)(F)F)c2)C(=O)c2ccccc2C1=O | > 100000 | 6.58 | 6.94 |
